US20030180295A1, “Angiocidin: a Cys-Ser-Val-Thr-Cys-Gly specific tumor cell adhesion receptor” (Philadelphia Health and Education Corporation, priority 1999, published 2003)
Entries after “also recorded” stand apart in the source; their conditions may differ.

How the values were obtained:
[1] = test system: Bovine aortic endothelial cells (BAEC); experiment: Morphology of BAEC monolayer cultures; format: cell-based; conditions: 0.37, 3.7, 37 μg/ml, 24 hours, serum-free medium with 1% BSA
Experimental: In this experiment, BAEC cells in monolayer cultures were plated for 24 hours in serum-free medium containing 1% BSA in the presence of increasing concentrations of angiocidin (control=none, 0.37 μg/ml, 3.7 μg/ml, 37 μg/ml). Hoffman interference microscopy (100×) was used to photograph the cells.

[2] = test system: Bovine Smooth Muscle Cells (BSM); experiment: ALAMAR BLUE cell viability assay; format: cell-based; conditions: 0 to 37 μg/ml, 24 hours
Experimental: Bovine aortic endothelial cells (BAEC), human umbilical vein endothelial cells (HUVEC), fibroblast cells, A549 human lung carcinoma cells (A549), MDA-MB231 human breast carcinoma cells (MB231), MCF7 human breast carcinoma cells (MCF7) were treated with 37 μg/ml of receptor, or buffer alone, for 24 hours. Viability of the cells was measured using the ALAMAR BLUE™ assay, which measures the capacity of cells to metabolize the ALAMAR BLUE™ dye. The ALAMAR BLUE™ assay (available from Biosource International, Camarillo, Calif.) quantitatively measures the proliferation of cell lines and can establish the relative cytotoxicity of chemical agents. The assay incorporates a fluorometric/colorimetric growth indicator based on detection of metabolic activity. The system incorporates an oxidation-reduction (redox) indicator that both fluoresces and changes color in response to chemical reduction of growth medium resulting from cell growth. […] Data can be collected using either fluorescence-based instrumentation (530-560 nm excitation wavelength and 590 nm emission wavelength) or absorbance-based instrumentation (570 nm and 600 nm).
BAEC and BSM cells were treated with increasing concentrations of angiocidin (0, 0.625, 1.25, 2.5, 5, 15, 26 and 37 μg/ml) for 24 hours. Cell viability was measured using the ALAMAR BLUE Tm assay. […]

[3] = test system: Lewis lung carcinoma; experiment: Survival of mice bearing Lewis lung carcinoma (IV injected cells); format: in vivo; conditions: 50 μg IV on days 1, 3, 5, 7, 9
Experimental: Ten mice were injected with one million Lewis lung carcinoma tumor cells in an IV injection. After 3 days of incubation, the mice were divided into two groups. One group of five mice were treated with an IV injection of 50 μg of angiocidin in Hepes buffered saline. The control group of five mice was treated with Hepes buffered saline. Mice were treated on days 1, 3, 5, 7, and 9.

[4] = test system: MDA-MB-435 Breast Carcinoma Cells; experiment: Cell adhesion to immobilized recombinant receptor; format: cell-based
Experimental: For the adhesion assay, in a 96 well plate, duplicate wells were covered with either TSP-1 (40 μg/ml), fibronectin (40 μg/ml), or and 1% bovine serum albumin (BSA). The wells were dried out overnight and then blocked with BSA. 100 μl of a suspension containing 2×10^5 cells were plated in the protein covered wells and incubated at 37^□ C. for 20 minutes to 1 hour. The non-adherent cells were removed and the wells were washed with a Hepes buffer. The adherent cells were fixed with 2.5% glutaraldehyde for 10 minutes and stained with 0.2% Giemsa. The stain was washed off and the cells were counted in a field of 1 mm square. Cells adhering to BSA were considered background while cells adhering to fibronectin were the positive control.
The method of Example 12 was followed except the whole receptor protein was immobilized on the plates, and cells transfected with either TSP-1 cDNA or a vector control were applied to the plates. The cells, which naturally express a low level of TSP-1, were transfected to over express the protein. […] Fibronectin and BSA were used as positive and negative controls, respectively, for cell adhesion. This evidence bolsters the theory that the receptor of the present invention binds to thrombospondin.
This specific interaction was confirmed by adding anti-TSP-1 antibodies, Anti-Cys-Ser-Val-Cys-Thr-Gly (SEQ ID NO: 1), and control IgG to the system.

[5] = test system: Bovine aortic endothelial cells (BAEC); experiment: ALAMAR BLUE cell viability assay; format: cell-based
Experimental: Bovine aortic endothelial cells (BAEC), human umbilical vein endothelial cells (HUVEC), fibroblast cells, A549 human lung carcinoma cells (A549), MDA-MB231 human breast carcinoma cells (MB231), MCF7 human breast carcinoma cells (MCF7) were treated with 37 μg/ml of receptor, or buffer alone, for 24 hours. Viability of the cells was measured using the ALAMAR BLUE™ assay, which measures the capacity of cells to metabolize the ALAMAR BLUE™ dye. The ALAMAR BLUE™ assay (available from Biosource International, Camarillo, Calif.) quantitatively measures the proliferation of cell lines and can establish the relative cytotoxicity of chemical agents. The assay incorporates a fluorometric/colorimetric growth indicator based on detection of metabolic activity. The system incorporates an oxidation-reduction (redox) indicator that both fluoresces and changes color in response to chemical reduction of growth medium resulting from cell growth. This causes the redox indicator to change from its oxidized, non-fluorescent, blue form to its reduced, fluorescent, red form. Data can be collected using either fluorescence-based instrumentation (530-560 nm excitation wavelength and 590 nm emission wavelength) or absorbance-based instrumentation (570 nm and 600 nm).
BAEC and BSM cells were treated with increasing concentrations of angiocidin (0, 0.625, 1.25, 2.5, 5, 15, 26 and 37 μg/ml) for 24 hours. Cell viability was measured using the ALAMAR BLUE Tm assay. […] In contrast, BSM cells are unaffected.
The methods of Example 21 were followed, except BAEC cells were used. Additionally, TSP-1 was added at both 20 μg/ml and 5 μg/ml.
As discussed in Example 19 above, angiocidin was added to BAEC cells. Fragments of angiocidin were added as well. […] GST was used as a negative control. V36-R42, the active site of the antisecretory factor, had no effect, illustrating that angiocidin plays a different role from antisecretory factor.
Bovine aortic endothelial cells (BAEC) were cultured overnight in serum-free media containing either 37 μg/ml his-tagged angiocidin or his-tagged GST. Both angiocidin and GST were expressed in bacteria transformed with the pTrcHisA expression vector and purified on nickel affinity chromatography under non-denaturing conditions. Viability was measured by the ALAMAR BLUE™ assay.
This study examined the effect of anti-angiocidin antibody on angiocidin-mediated inhibition of BAEC viability. BAEC were cultured overnight in serum-free media containing either 5 μg/ml angiocidin, 5 μg/ml angiocidin plus 100 μg/ml control IgG, or 5 μg/ml angiocidin plus 100 μg/ml anti-angiocidin IgG. Viability was measured using the ALAMAR BLUE™ assay, described above.
The endothelial cells (BAEC) were incubated overnight 37 μg/ml of the angiocidin, fragments, and GST. Viability was measured using the ALAMAR BLUE™ assay.

[6] = test system: BAEC; experiment: Adhesion of BAEC to a substrate; format: cell-based, bovine; conditions: cells pretreated with 37 μg/ml, 30 minutes
Experimental: This example evaluates the effect of angiocidin on adhesion of BAEC to a substrate. Cells in the treatment group were pretreated with angiocidin (37 μg/ml). Cells in the control group were not pretreated. Cells (50,000) were immediately plated on microtiter wells coated with 2 μg of either fibronectin, TSP-1, or BSA. Fibronectin is a strong extracellular matrix protein that attracts BAEC and serves as a positive control, whereas BSA is not an adhesion protein and serves as a negative control. After 30 minutes non-adherent cells were aspirated, wells washed with PBS, fixed with 2.5% glutaraldehyde, stained with 2% Giemsa, and the number of adherent cells per 1 mm^2 counted.

Question: Which cell morphology [1] does the source give for “angiocidin: Cys-Ser-Val-Thr-Cys-Gly (SEQ ID NO: 1)-specific thrombospondin (TSP-1) receptor protein; recombinant form of SEQ ID NO: 2 used in the Examples” here?
Answer: Its cell morphology is “elongated, detached from the plate, aggregated, and died”.

Question: What about the cell viability [2] of the same substance?
Answer: Its cell viability is “unaffected”.

Question: What about the median survival period [3] of the same substance?
Answer: The median survival period was 19 days.

Question: What about the “inhibition of cell adhesion to receptor bound to the plate by unbound receptor” value ([4]; nontransfected, naturally TSP-1 expressing cells, FIG. 17) of the same substance?
Answer: Its value is “reduced the adhesion of the cells to the plate”.

Question: And the “adhesion of TSP-1 cDNA transfected cells to plates with receptor protein relative to control cell line” value ([4]; p<0.001)?
Answer: Its value is 2.5 times.

Question: What about the cell viability ([5]; 0 to 37 μg/ml, 24 hours) of the same substance?
Answer: The cell viability was “dose dependent inhibition of BAEC cell viability; also recorded: decreases viability of BAEC cells”.

Question: And the “decrease of cell viability” value ([5]; 37 μg/ml, 24 hours)?
Answer: Its value is 70-80%.

Question: And the “cell viability, angiocidin and fragments” value ([5]; Example 27, FIG. 34)?
Answer: The value was “inhibited cell viability”.

Question: And the “cell viability, his-tagged proteins” value ([5]; overnight, serum-free media, purified under non-denaturing conditions)?
Answer: The value was “dose-dependent effect on cell viability”.

Question: And the “adhesion of BAEC” value ([6]; TSP-1 coated wells)?
Answer: The value was “significantly reduced the adhesion of BAEC to the TSP-1 coated plates”.

Question: And the “adhesion of BAEC” value ([6]; fibronectin coated wells)?
Answer: Its value is “remained the same”.
